Reference: ChEMBL document CHEMBL1201862, “PubChem BioAssay data set” (2004)
Calls of active or inactive are those of the source.

What was measured:
[1] = target: T1, Heat shock factor protein 1 (Mus musculus, UniProt P38532); assay: inhibition of MG132-induced HSE-luciferase signal, confirmation, cell-based, NIH3T3, luminescence, dose retest (AID 2382); type: functional;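 note: NIH3T3 fibroblasts with HSF1-driven luciferase reporter stressed by proteasome inhibitor MG132; luminescence from HSF1-driven luciferase expression after 8 hours of MG132 stress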
T1 sequence (P38532 whole entry): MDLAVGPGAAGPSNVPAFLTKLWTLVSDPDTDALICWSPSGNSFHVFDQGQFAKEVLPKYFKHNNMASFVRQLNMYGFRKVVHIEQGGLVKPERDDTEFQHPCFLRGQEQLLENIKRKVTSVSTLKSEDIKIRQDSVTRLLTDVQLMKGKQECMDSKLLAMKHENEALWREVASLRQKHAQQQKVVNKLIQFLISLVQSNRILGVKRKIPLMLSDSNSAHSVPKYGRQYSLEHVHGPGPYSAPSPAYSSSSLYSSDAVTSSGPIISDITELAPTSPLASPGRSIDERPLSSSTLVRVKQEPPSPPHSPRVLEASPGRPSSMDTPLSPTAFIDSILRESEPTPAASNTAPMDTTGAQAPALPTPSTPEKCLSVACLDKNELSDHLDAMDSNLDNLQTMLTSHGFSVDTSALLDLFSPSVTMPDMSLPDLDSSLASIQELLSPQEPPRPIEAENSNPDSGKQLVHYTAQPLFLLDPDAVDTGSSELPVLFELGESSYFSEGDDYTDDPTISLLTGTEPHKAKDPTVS

[2] = target: Cytochrome P450 2C19 (Homo sapiens, UniProt P33261); assay: Cytochrome panel assay with activity outcomes. Panel member name: p450-cyp2c19 Compounds with AC50 equal or less than 10 uM are considered active; type: functional
Chain of Cytochrome P450 2C19 (P33261 whole entry): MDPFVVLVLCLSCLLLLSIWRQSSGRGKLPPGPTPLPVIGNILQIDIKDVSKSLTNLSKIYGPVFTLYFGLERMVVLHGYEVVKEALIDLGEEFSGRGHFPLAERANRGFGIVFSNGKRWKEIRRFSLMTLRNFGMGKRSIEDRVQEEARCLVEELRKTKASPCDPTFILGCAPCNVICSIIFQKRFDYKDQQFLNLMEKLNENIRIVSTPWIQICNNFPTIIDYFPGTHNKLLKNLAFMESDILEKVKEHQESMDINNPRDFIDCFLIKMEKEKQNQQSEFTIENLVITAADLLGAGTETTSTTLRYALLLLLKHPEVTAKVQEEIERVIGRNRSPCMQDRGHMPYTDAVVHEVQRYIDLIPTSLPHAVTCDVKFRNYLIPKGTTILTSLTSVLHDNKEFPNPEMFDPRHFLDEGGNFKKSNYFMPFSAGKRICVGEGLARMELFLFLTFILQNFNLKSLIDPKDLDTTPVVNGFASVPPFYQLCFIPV

[3] = target: T2, Cytochrome P450 1A2 (Homo sapiens, UniProt P05177);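 note: PubChem cytochrome P450 panel assay, CYP1A2 panel member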
T2 sequence (P05177 whole entry): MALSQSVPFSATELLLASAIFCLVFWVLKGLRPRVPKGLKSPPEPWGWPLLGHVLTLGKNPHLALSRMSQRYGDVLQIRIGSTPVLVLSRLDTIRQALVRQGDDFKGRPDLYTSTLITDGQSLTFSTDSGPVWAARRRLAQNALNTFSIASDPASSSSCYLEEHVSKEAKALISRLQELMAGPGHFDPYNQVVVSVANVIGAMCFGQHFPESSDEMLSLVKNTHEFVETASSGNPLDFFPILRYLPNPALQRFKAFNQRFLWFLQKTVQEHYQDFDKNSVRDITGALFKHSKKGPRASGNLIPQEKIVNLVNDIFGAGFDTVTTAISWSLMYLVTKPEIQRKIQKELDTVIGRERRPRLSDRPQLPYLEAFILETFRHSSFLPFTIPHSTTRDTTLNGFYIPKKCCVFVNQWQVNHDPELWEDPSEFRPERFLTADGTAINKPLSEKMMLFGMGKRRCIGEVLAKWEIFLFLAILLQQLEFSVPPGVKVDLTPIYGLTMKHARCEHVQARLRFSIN

[4] = target: Cytochrome P450 3A4 (Homo sapiens, UniProt P08684);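 note: CYP3A4 tested as one member of a cytochrome P450 panel screen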
Chain of Cytochrome P450 3A4 (P08684 whole entry): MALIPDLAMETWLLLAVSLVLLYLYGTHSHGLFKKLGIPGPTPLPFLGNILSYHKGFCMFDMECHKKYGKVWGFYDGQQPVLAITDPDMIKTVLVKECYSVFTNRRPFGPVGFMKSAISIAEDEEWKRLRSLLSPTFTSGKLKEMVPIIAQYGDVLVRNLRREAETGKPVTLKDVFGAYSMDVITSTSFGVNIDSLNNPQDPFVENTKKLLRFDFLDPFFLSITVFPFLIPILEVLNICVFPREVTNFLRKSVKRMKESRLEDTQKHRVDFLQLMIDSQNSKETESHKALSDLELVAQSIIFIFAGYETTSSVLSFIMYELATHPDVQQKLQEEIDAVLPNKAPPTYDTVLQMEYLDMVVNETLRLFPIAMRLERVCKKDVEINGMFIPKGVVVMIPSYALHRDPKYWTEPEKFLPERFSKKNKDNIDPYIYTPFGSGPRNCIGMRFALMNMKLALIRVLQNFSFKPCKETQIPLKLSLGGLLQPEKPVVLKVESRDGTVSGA

[5] = target: Cytochrome P450 2D6 (Homo sapiens, UniProt P10635);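 note: CYP2D6 member of a cytochrome P450 panel assay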
Chain of Cytochrome P450 2D6 (P10635 whole entry): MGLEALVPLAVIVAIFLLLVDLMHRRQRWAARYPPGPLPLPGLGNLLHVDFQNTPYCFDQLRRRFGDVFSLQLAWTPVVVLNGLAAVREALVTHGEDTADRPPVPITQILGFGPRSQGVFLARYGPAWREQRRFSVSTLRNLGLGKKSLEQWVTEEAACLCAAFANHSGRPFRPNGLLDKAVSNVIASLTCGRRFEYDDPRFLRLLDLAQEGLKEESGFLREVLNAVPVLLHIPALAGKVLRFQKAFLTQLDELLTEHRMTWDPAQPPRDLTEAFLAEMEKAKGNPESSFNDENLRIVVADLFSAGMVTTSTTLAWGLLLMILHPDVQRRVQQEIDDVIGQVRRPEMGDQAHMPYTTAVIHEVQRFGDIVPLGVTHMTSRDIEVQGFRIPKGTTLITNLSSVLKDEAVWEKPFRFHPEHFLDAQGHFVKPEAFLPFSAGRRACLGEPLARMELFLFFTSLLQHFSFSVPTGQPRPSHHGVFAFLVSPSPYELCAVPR

[6] = P. falciparum Dd2 growth inhibitors, dose response, SYBR Green, cherry-picked samples (AID 1159567); type: functional, cell-based

With `N#C/C(=C\c1ccccn1)c1ccccn1` the EC50 [1] was > 195 µM (not active).

For `Cc1ccc(N(Cc2cc3ccc(C)cc3nc2O)C(=O)c2cccs2)cc1`, the EC50 [1] was > 195 µM (not active).

In the case of `Cc1onc(-c2c(F)cccc2Cl)c1C(=O)c1ccccc1`, the EC50 [1] is reported as > 195 µM (not active).

In the case of `O=C1/C(=C\c2ccccc2)C[C@@]2(O)[C@H]3Cc4ccc(O)c5c4[C@@]2(CCN3CC2CC2)[C@@H]1O5`, the AC50 ([2]; read-out: AC50) is reported as 15.8 µM (inconclusive), the AC50 [3] is reported as 31.6 µM (inconclusive) and the AC50 [4] is reported as 31.6 µM (inconclusive).

In the case of `CCCNC(=O)c1ccc(N2CCC3(CC2)CC(c2cccc(Br)c2)=NO3)c(NC(=O)c2ccc(Br)cc2)c1`, the EC50 [1] is reported as > 195 µM (not active).

For `Cc1ccc(NC2=NC(=O)/C(=C\c3cccs3)S2)cc1C`, the EC50 [1] was > 195 µM (not active).

In the case of `CCCCn1c(C(C)NC(=O)CC)nc2ccccc21` (centres undefined), the EC50 [1] is reported as > 195 µM (not active).

With `Cc1c2cccc(Sc3ccccc3)c2c2c3c(cccc13)[S+](c1ccccc1)C2` (centres undefined) the AC50 [5] was 5.01 µM (inconclusive) and the AC50 [4] was 3.16 µM (inconclusive).

With `C[C@@H](C(=O)Nc1ccc2ccccc2c1)[C@H]1C[C@]1(C)[C@H](NC(=O)c1cnccn1)c1ccccc1` the AC50 [3] was 25.1 µM (inconclusive).

For `Cn1c(C(=O)O)c(CC(=O)Nc2ccc3c(c2)OCCO3)c2ccccc21`, the EC50 [1] was 1.95 µM (active).

With `COc1cccc(N(CC(=O)Nc2cccnc2)S(C)(=O)=O)c1` the EC50 [1] was > 195 µM (not active).

In the case of `COc1ncc2nc(-c3cccs3)c(=O)n(Cc3cccs3)c2n1`, the AC50 [5] is reported as 3.98 µM (inconclusive).

For `O=C(CSc1ccccn1)Nc1nc2ccc(Br)cc2s1`, the AC50 [5] was 15.8 µM (inconclusive) and the AC50 [4] was 22.4 µM (inconclusive).

In the case of `Cc1noc(C)c1-c1cc(NC2CC2)ncn1`, the AC50 ([2]; read-out: AC50) is reported as 31.6 µM (inconclusive), the AC50 [5] is reported as 20 µM (inconclusive) and the AC50 [4] is reported as 25.1 µM (inconclusive).

For `Cc1ccc(Cn2nc(C)c(NC(=O)c3cc(-c4ccco4)on3)c2C)cc1`, the AC50 [3] was 39.8 µM (inconclusive).

In the case of `O=[N+]([O-])c1cccc(-c2nnc(-c3ccccc3)o2)c1`, the EC50 [1] is reported as > 195 µM (not active).

In the case of `CC(=O)N1CCC2(CC1)CCN(c1cccc(-c3ccccc3)c1)CC2`, the AC50 [5] is reported as 31.6 µM (inconclusive).

In the case of `CON(c1nc(N(C)C)nc(N(C)C)n1)S(=O)(=O)c1ccccc1Cl`, the AC50 [5] is reported as 25.1 µM (inconclusive) and the AC50 [3] is reported as 14.1 µM (inconclusive).

In the case of `COc1ccc(NS(=O)(=O)NC(=O)c2cn(C)c3ccccc23)cc1`, the EC50 [1] is reported as > 195 µM (not active).

In the case of `Cc1cccc(CNc2ccnc(-c3cccc(NS(C)(=O)=O)c3)n2)c1`, the AC50 [5] is reported as 39.8 µM (inconclusive).

In the case of `CCn1c(SCC(=O)N(C)C2CCS(=O)(=O)C2)nnc1-c1cccs1` (centres undefined), the EC50 [1] is reported as > 195 µM (not active).

With `Cc1cc(Cc2cc(Cc3cc(C)cc(C(C)(C)C)c3O)c(C)cc2C)c(O)c(C(C)(C)C)c1` the AC50 [5] was 3.98 µM (inconclusive).

For `CC(Sc1nc(NCc2ccccc2)nc(N(C)C)n1)C(=O)Nc1ccccc1` (centres undefined), the AC50 [5] was 15.8 µM (inconclusive).

With `CC1CN(C(=O)Nc2ccc3c(c2)OCCO3)CC(C)O1` (centres undefined) the EC50 [1] was > 195 µM (not active).

In the case of `Cc1ccccc1-c1cc(Nc2ccc(F)cc2)ncn1`, the AC50 [5] is reported as 31.6 µM (inconclusive) and the AC50 [4] is reported as 39.8 µM (inconclusive).

With `O=C1c2ccccc2C(Nc2ccc3c(c2)OCCO3)N1c1ccccn1` (centres undefined) the EC50 [1] was 57.5 µM (active).

In the case of `c1cc(C2N3CCCN2CC3)ccn1` (centres undefined), the AC50 [2] is reported as “inconclusive” and the AC50 [3] is reported as 1.26 µM (inconclusive).

For `O=C(O)c1cccc(N2C(=O)/C(=C/c3ccc([N+](=O)[O-])cc3)C=C2c2ccccc2)c1`, the EC50 [1] was > 195 µM (not active).

With `CCCOc1ccc(OCCNC2CCCC2)cc1` the AC50 ([2]; read-out: AC50) was 31.6 µM (inconclusive) and the AC50 [3] was 14.1 µM (inconclusive).

With `Cc1cc2ccccc2c(=O)n1CC(=O)Nc1ccc2c(c1)OCO2` the EC50 [1] was > 195 µM (not active).

In the case of `O=C(CNC1CCCCCC1)Nc1ccccc1N1CCCCC1`, the AC50 [3] is reported as 14.1 µM (inconclusive).

With `CSc1ccccc1NC(=O)C1=CC(c2ccc(C)cc2)=NS(=O)(=O)N1C` the EC50 [1] was > 195 µM (not active).

In the case of `Cc1ccccc1-c1nccc(NCCN2CCOCC2)n1`, the AC50 [5] is reported as 31.6 µM (inconclusive).

In the case of `CC(=O)Cc1c[nH]c2ccccc12`, the EC50 [1] is reported as > 195 µM (not active).

With `CS(=O)(=O)Nc1cccc(-c2nccc(NCc3cccs3)n2)c1` the AC50 ([2]; read-out: AC50) was 25.1 µM (inconclusive) and the AC50 [5] was 25.1 µM (inconclusive).

With `O=C(CSc1ccc(Br)cc1)Nc1ccccc1N1CCOCC1` the EC50 [1] was > 195 µM (not active).

With `O=C(c1ccncc1)N1CCC2(CC1)CN(c1ncccn1)C2` the AC50 [5] was 20 µM (inconclusive) and the AC50 [3] was 6.31 µM (inconclusive).

In the case of `COc1cc(C(=O)Nc2ccc3c(c2)OCCO3)c(-n2cnnn2)cc1OC`, the AC50 [2] is reported as “inconclusive”, the AC50 [3] is reported as 2.51 µM (inconclusive) and the AC50 [4] is reported as 25.1 µM (inconclusive).

With `C[C@@H]1CN([C@H](C)CO)C(=O)c2cccc(NS(=O)(=O)c3ccccc3)c2O[C@H]1CN(C)Cc1ccc(-c2ccccc2)cc1` the AC50 [6] was 3.68 µM (active).

For `O=C(c1ccccc1F)N1CC[C@H]2[C@H](CO)Nc3ccc(C#Cc4ccc(F)cc4)cc3[C@H]21`, the AC50 [6] was 4.96 µM (active).

For `O=C(Nc1cccc(F)c1)N[C@@H]1CC[C@H](CCNS(=O)(=O)c2cccc(Cl)c2)O[C@H]1CO`, the AC50 [6] was 31.2 µM (active).

In the case of `COc1cccc(-c2ccc3c(c2)[C@@H]2[C@@H](CCN2C(=O)C2CCCCC2)[C@H](CO)N3)c1`, the AC50 [6] is reported as 4.18 µM (active).

In the case of `O=C(C[C@H]1C[C@H]2c3cc(NC(=O)Cc4ccncc4)ccc3O[C@H]2[C@H](CO)O1)NCc1ccccc1`, the AC50 [6] is reported as 4.55 µM (active).

For `COc1ccc2c3c([nH]c2c1)[C@H](CO)N(Cc1cc(F)ccc1F)CC31CN(C(=O)C2CCC2)C1`, the AC50 [6] was 7.04 µM (active).

In the case of `OC[C@@H]1CC[C@@H]2O[C@H](CCc3ccc(C#Cc4ccccc4)cc3)[C@H](n3cc(-c4ccccc4)nn3)C[C@@H]2O1`, the AC50 [6] is reported as 3.86 µM (active).

With `COc1ccc2c3c([nH]c2c1)[C@H](CO)N(Cc1ccc(F)cc1)CC31CCN(C(C)=O)CC1` the AC50 [6] was 5.92 µM (active).

In the case of `C[C@@H]1CN([C@@H](C)CO)C(=O)c2c(c3ccccc3n2C)-c2ccccc2CO[C@H]1CN(C)C(=O)Cc1ccccc1`, the AC50 [6] is reported as 5.21 µM (active).

With `C/C=C/c1ccc([C@H]2[C@@H](CO)N(C(=O)CC)[C@@H]2CNCC2CCCCC2)cc1` the AC50 [6] was 4.04 µM (active).

For `CN1CCN([C@@H]2Cc3ccccc3Sc3ccc(Cl)cc32)CC1`, the AC50 ([2]; read-out: AC50) was 25.1 µM (inconclusive) and the AC50 [3] was 12.6 µM (inconclusive).
